From patent US11427553B2, “Dihydrooxadiazinones” (Bayer Aktiengesellschaft, priority 2017, dated 2022)
Where a name gives a salt, the structure may show the parent alone. Read-outs that look alike come from different tables or passages of the source.

Legend:
HeLa cells = assay: Assay 1 cell proliferation measurement (CTG, 72 h), HeLa; format: cell-based, human; conditions: Assay 1, 72 h, Cell Titer Glo, read-out: HeLa IC50 [nM] (Cervical cancer)
Procedure, shortened: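 CTG luminescence readout after 72 h compound exposure at 37 °C; 10-point 2.5-fold dilutions from 100 nM max final; DMSO 0.3% vehicle. IC50 from 4-parameter fit, normalised to 0 h plate (max inhibition) and DMSO (min inhibition).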

SK-MEL-3 cells = assay: Assay 1 cell proliferation measurement (CTG, 72 h), SK-MEL-3; format: cell-based, human; conditions: Assay 1, 72 h, Cell Titer Glo, read-out: SK-MEL-3 IC50 [nM] (melanoma)
Method: Cell Proliferation Measurement
The antiproliferative activity of the compounds of the general formula (I) was examined in vitro in human cancer cells. For this purpose, the appropriate number of cells (Hela: 800; SK-MEL-3: 1000; A549: 800) were plated in 384-well plates with appropriate growth medium ((A549: DMEM/Ham's F12 (Biochrom; #FG 4815 with stabile Glutamine), FCS 10% final (Biochrom; #S 0415); Hela: DMEM/Ham's F12 (Biochrom; #FG 4815 with stabile Glutamine), FCS 10% final (Biochrom; #S 0415); SK-MEL-3: McCoy's 5A (Biochrom; #F 1015), FCS 10% final (Biochrom; #S 0415), L-Alanyl-L-Glutamine final: 2 mM, (Biochrom; #K 0302)) and incubated at 37° C. overnight. After 24 h, cells on one plate (0 h plate) were treated with 30 μl/cavity of CTG solution (Promega Cell Titer Glo (catalogue #G755B and G756B)) and incubated at room temperature for 10 min, and luminescence was measured by means of a VICTOR V (Perkin Elmer), in order to determine cell viability on commencement of treatment. The cells on the test plate were treated with the compounds of the general formula (I) as and incubated at 37° C. for 72 h. The compounds were added to the cells by means of an HP D300 digital dispenser in a 10-step 2.5-fold dilution series generally starting at a maximum final drug concentration of 100 nM. As control, the cells were treated with vehicle (DMSO at 0.3% final concentration). After 72 h, the cells were treated with 30 μl/cavity of CTG solution (Promega Cell Titer Glo (catalogue #G755B and G756B)) and incubated at room temperature for 10 min. and luminescence was measured by means of a VICTOR V (Perkin Elmer), in order to determine cell viability at the end of treatment. The percentage effect on cell growth and the IC50 derived therefrom were determined for each test substance using the values from the 0 h plate […] and the DMSO control […]. The IC50 values were calculated using a 4-parameter fit.

human full length PDE3A = human full length PDE3A (Homo sapiens (Human), UniProt Q14432); assay: Assay 4 PDE3A enzyme inhibition (3H-cAMP SPA); format: biochemical; conditions: Sf9 cell extract
human full length PDE3A, sequence (Q14432 whole entry): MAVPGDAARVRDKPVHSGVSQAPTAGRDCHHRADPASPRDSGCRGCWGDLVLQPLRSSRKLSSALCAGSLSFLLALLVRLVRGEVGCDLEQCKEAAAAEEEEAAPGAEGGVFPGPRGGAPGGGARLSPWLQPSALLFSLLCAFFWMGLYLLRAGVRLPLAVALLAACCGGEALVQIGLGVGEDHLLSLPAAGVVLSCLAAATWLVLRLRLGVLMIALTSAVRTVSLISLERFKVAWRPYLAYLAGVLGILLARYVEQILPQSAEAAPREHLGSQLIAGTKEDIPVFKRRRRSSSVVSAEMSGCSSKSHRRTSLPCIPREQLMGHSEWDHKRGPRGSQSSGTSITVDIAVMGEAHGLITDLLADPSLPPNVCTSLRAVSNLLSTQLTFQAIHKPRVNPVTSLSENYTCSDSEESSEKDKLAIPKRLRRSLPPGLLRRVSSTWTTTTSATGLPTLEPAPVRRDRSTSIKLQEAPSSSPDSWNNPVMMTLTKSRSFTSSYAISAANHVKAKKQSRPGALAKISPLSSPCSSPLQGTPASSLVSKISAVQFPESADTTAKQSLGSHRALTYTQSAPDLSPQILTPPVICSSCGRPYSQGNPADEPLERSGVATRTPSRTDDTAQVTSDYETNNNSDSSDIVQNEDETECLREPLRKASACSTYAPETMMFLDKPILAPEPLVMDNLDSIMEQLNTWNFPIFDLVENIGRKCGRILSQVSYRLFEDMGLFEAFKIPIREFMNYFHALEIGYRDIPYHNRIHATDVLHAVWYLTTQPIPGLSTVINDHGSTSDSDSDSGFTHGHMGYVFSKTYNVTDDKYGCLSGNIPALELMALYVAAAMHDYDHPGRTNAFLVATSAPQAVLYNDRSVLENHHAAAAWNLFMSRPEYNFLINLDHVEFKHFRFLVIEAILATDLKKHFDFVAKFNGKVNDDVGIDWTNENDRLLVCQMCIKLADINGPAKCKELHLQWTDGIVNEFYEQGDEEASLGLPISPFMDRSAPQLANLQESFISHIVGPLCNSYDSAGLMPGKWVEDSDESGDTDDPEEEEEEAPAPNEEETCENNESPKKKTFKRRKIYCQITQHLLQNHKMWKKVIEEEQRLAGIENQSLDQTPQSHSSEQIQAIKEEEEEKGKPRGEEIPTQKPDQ
Method: Assay 4 Method for PDE3A Enzyme Inhibition
(§1) The commercially available 3H-cAMP Scintillation Proximity Assay (SPA, Perkin Elmer) system was used for enzyme inhibition studies. For the determination of the in vitro effect of example compounds on the PDE3A reactions 2 μl of the respective example compound solution in DMSO (serial dilutions) were placed in wells of microtiter plates (Isoplate-96/200W; Perkin Elmer). 50 μl of a dilution of PDE3A cell extract from Sf9 cells overexpressing human full length PDE3A (SB Drug Discovery, UK) in buffer A (50 mM Tris/HCl pH 7.5, 8.3 mM MgCl2, 1.7 mM EDTA, 0.2% BSA) was added. The dilution of the PDE3A cell extract was chosen such that the reaction kinetics was linear and less than 70% of the substrate was consumed (typical dilution 1:5000). The reaction was started by addition of 50 μl (0.025 μCi) of 1:2000 in buffer A w/o BSA diluted substrate [8-3H]adenosine 3′, 5′-cyclic phosphate (1 μCi/μl; Perkin Elmer). After incubation at room temperature for 60 min, the reaction was stopped by addition of 25 μl of a suspension containing 18 mg/ml yttrium scintillation proximity beads (Perkin Elmer) in water. The microtiter plates were sealed and measured in a Microbeta scintillation counter (PerkinElmer Wallac). IC50 values were determined from sigmoidal curves by plotting percentage PDE3A activity vs log compound concentration.

human full length PDE3B = human full length PDE3B (Homo sapiens (Human), UniProt Q13370); assay: Assay 5 PDE3B enzyme inhibition (3H-cAMP SPA); format: biochemical; conditions: Sf9 cell extract
human full length PDE3B, sequence (Q13370 whole entry): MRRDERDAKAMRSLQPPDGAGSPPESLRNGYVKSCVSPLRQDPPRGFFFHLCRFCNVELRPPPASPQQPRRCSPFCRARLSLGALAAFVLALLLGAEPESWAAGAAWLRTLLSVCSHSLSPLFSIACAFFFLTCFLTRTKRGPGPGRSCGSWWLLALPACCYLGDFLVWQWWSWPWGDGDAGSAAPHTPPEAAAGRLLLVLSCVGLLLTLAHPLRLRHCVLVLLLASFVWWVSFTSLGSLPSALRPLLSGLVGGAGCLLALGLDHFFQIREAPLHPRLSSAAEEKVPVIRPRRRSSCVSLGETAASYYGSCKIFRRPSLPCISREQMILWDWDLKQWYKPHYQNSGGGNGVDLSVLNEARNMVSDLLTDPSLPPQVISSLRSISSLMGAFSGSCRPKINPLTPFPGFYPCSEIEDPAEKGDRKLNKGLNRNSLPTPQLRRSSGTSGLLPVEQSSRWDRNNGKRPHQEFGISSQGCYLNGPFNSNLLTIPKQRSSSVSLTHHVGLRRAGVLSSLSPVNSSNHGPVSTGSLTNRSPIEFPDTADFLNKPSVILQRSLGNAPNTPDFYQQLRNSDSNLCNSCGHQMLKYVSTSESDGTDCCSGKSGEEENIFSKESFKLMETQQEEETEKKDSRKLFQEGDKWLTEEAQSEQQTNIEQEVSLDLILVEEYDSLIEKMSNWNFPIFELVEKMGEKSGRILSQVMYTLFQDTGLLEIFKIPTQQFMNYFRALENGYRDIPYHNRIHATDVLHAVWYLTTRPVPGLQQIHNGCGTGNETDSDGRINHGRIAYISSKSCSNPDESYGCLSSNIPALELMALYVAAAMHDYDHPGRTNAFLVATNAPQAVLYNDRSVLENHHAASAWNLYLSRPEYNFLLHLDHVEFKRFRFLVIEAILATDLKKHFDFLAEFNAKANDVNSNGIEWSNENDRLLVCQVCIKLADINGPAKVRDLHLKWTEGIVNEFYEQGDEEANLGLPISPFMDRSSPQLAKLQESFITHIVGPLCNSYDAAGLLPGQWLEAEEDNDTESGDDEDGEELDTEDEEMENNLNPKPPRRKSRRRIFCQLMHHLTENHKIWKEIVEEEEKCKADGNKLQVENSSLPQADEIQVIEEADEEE
Method: as §1, with “PDE3B” for “PDE3A”, “1:6000).” for “1:5000).”

| IC50 (HeLa cells; Homo sapiens, HeLa) | IC50 (SK-MEL-3 cells; Homo sapiens, SK-MEL3) | IC50 (human full length PDE3A) | IC50 (human full length PDE3B) | IC50 (HeLa cells) | IC50 (SK-MEL-3 cells) | Structure (SMILES) |
| --- | --- | --- | --- | --- | --- | --- |
| 1 nM | 2 nM | 80 nM | 110 nM | – | – | O=C1NN=C(c2ccc(NCC(O)C(F)(F)F)c(C(F)(F)F)c2)CO1 (racemic) [Example 204, (rac)-5-[4-{[3,3,3-trifluoro-2-hydroxypropyl]amino}-3-(trifluoromethyl)phenyl]-3,6-dihydro-2H-1,3,4-oxadiazin-2-one] |
| 9 nM | 14 nM | 74 nM | 180 nM | – | – | CC1CC(C)N1c1ccc(C2=NNC(=O)OC2)cc1C(F)(F)F (racemic) [Example 207, (rac)-5-{4-[2,4-Dimethylazetidin-1-yl]-3-(trifluoromethyl)phenyl}-3,6-dihydro-2H-1,3,4-oxadiazin-2-one] |
| 2 nM | 3 nM | 66 nM | 100 nM | – | – | O=C1NN=C(c2ccc(NCC3CCCO3)c(C(F)(F)F)c2)CO1 (racemic) [Example 215, (rac)-5-[4-({[Oxolan-2-yl]methyl}amino)-3-(trifluoromethyl)phenyl]-3,6-dihydro-2H-1,3,4-oxadiazin-2-one] |
| 1 nM | 3 nM | 27 nM | 25 nM | – | – | O=C1NN=C(c2ccc(C3CCCOC3)c(C(F)(F)F)c2)CO1 (racemic) [Example 271, (rac)-5-{4-[Oxan-3-yl]-3-(trifluoromethyl)phenyl}-3,6-dihydro-2H-1,3,4-oxadiazin-2-one] |
| 5 nM | 7 nM | 29 nM | 64 nM | – | – | NC12CC1CN(c1ccc(C3=NNC(=O)OC3)cc1C(F)(F)F)C2 (racemic) [Example 275, (rac)-5-{4-[1-amino-3-azabicyclo[3.1.0]hexan-3-yl]-3-(trifluoromethyl)phenyl}-3,6-dihydro-2H-1,3,4-oxadiazin-2-one-salt with hydrochloric acid] |
| 78 nM | 260 nM | 320 nM | 400 nM | – | – | CC1OC(=O)NN=C1c1ccc(Br)cc1 (racemic) [Intermediate 72, (rac)-5-(4-Bromophenyl)-6-methyl-3,6-dihydro-2H-1,3,4-oxadiazin-2-one] |
| – | – | 110 nM | 140 nM | 5 nM | 7 nM | C[C@H]1C[C@H](C)N1c1ccc(C2=NNC(=O)OC2)cc1C(F)(F)F (relative stereo) [Example 208, (cis or trans)-5-{4-[2,4-Dimethylazetidin-1-yl]-3-(trifluoromethyl)phenyl}-3,6-dihydro-2H-1,3,4-oxadiazin-2-one] |
| 45 nM | > 100 nM | 380 nM | 270 nM | – | – | N#Cc1cc(C2=NNC(=O)OC2)cc(Cl)c1N1CCOCC1 [Example 23, 3-Chloro-2-(morpholin-4-yl)-5-(2-oxo-3,6-dihydro-2H-1,3,4-oxadiazin-5-yl)benzonitrile] |
| 55 nM | > 100 nM | 180 nM | 110 nM | – | – | CC1CN(c2ccc(C3=NNC(=O)OC3)cc2F)CC(C)O1 (stereo not shown) [Example 24, 5-{4-[2,6-Dimethylmorpholin-4-yl]-3-fluorophenyl}-3,6-dihydro-2H-1,3,4-oxadiazin-2-one] |

The next lines start with the molecule.

| Structure (SMILES) | IC50 (HeLa cells; Homo sapiens, HeLa) | IC50 (SK-MEL-3 cells; Homo sapiens, SK-MEL3) | IC50 (human full length PDE3A) | IC50 (human full length PDE3B) | IC50 (HeLa cells) | IC50 (SK-MEL-3 cells) |
| --- | --- | --- | --- | --- | --- | --- |
| CC1(F)CCN(c2ccc(C3=NNC(=O)OC3)cc2F)CC1 [Example 5, 5-[3-Fluoro-4-(4-fluoro-4-methylpiperidin-1-yl)phenyl]-3,6-dihydro-2H-1,3,4-oxadiazin-2-one] | 3 nM | 5 nM | 139 nM | 97 nM | – | – |
| O=C1NN=C(c2ccc(N3CCC(F)CC3)c(F)c2)CO1 [Example 6, 5-[3-Fluoro-4-(4-fluoropiperidin-1-yl)phenyl]-3,6-dihydro-2H-1,3,4-oxadiazin-2-one] | 5 nM | 9 nM | 100 nM | 110 nM | – | – |
| Cc1cc(C2=NNC(=O)OC2)ccc1C1=CCOCC1 [Example 10, 5-[4-(3,6-Dihydro-2H-pyran-4-yl)-3-methylphenyl]-3,6-dihydro-2H-1,3,4-oxadiazin-2-one] | 15 nM | 43 nM | 220 nM | 230 nM | – | – |
| Cc1cc(C2=NNC(=O)OC2)ccc1-c1cn[nH]c1 [Example 11, 5-[3-Methyl-4-(1H-pyrazol-4-yl)phenyl]-3,6-dihydro-2H-1,3,4-oxadiazin-2-one] | 19 nM | 49 nM | 84 nM | 65 nM | – | – |
| Cc1cc(C2=NNC(=O)OC2)ccc1-c1ccc(=O)[nH]c1 [Example 12, 5-[3-Methyl-4-(6-oxo-1,6-dihydropyridin-3-yl)phenyl]-3,6-dihydro-2H-1,3,4-oxadiazin-2-one] | 20 nM | 58 nM | 31 nM | 30 nM | – | – |
| Cc1cc(C2=NNC(=O)OC2)ccc1-c1cncnc1 [Example 14, 5-[3-Methyl-4-(pyrimidin-5-yl)phenyl]-3,6-dihydro-2H-1,3,4-oxadiazin-2-one] | 49 nM | 64 nM | 63 nM | 71 nM | – | – |
| Cc1cc(C2=NNC(=O)OC2)ccc1-c1cccc(F)c1 [Example 15, 5-(3′-Fluoro-2-methylbiphenyl-4-yl)-3,6-dihydro-2H-1,3,4-oxadiazin-2-one] | 8 nM | 16 nM | 110 nM | 110 nM | – | – |
| CC1CN(c2c(F)cc(C3=NNC(=O)OC3C)cc2F)CCO1 (stereo not shown) [Example 18, 5-{3,5-Difluoro-4-[2-methylmorpholin-4-yl]phenyl}-6-methyl-3,6-dihydro-2H-1,3,4-oxadiazin-2-one] | 18 nM | 74 nM | 450 nM | 220 nM | – | – |
| O=C1NN=C(c2cc(F)c(N3CCOCC3)c(F)c2)CO1 [Example 21, 5-[3,5-Difluoro-4-(morpholin-4-yl)phenyl]-3,6-dihydro-2H-1,3,4-oxadiazin-2-one] | 15 nM | > 67 nM | 175 nM | 185 nM | – | – |
| N#Cc1cc(C2=NNC(=O)OC2)ccc1N1CCOCC1 [Example 22, 2-(Morpholin-4-yl)-5-(2-oxo-3,6-dihydro-2H-1,3,4-oxadiazin-5-yl)benzonitrile] | 26 nM | 51 nM | 52 nM | 33 nM | – | – |
